Consider two molecules from PMC12778052 (Science Advances, 2026).

One test has as its target T1, mouse Nectin-4 (Mus musculus, UniProt Q8R007).
T1 construct: purchased R&D Systems 3116-N4-050
T1 sequence (Q8R007 31-347 limits assumed): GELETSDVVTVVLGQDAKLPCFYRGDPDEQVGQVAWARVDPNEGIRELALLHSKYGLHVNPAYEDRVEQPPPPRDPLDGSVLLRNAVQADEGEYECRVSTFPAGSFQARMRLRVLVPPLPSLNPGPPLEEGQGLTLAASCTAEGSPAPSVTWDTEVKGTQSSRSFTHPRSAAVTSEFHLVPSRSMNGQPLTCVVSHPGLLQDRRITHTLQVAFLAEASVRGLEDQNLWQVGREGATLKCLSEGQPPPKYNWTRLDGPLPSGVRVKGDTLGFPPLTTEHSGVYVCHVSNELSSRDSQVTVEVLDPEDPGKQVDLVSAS
Put plainly: SPR affinity for recombinant mouse Nectin-4. Type of test: binding. The note with it: mouse Nectin-4. Here is the method:
The affinity of AJ647 for human and mouse Nectin-4 recombinant proteins was evaluated by SPR. The experiments were conducted using a Biacore T200 instrument with a CM5 chip at 25°C. The ligands used were His-tagged human Nectin-4 (R&D Systems, catalog no. 2659-N4-050, 44 kDa, 0.2 mg/ml stock concentration) and mouse Nectin-4 proteins (R&D Systems, catalog no. 3116-N4-050, 45 kDa, 0.2 mg/ml stock concentration), which were immobilized onto the CM5 chip. AJ647 (3057.5 Da, 10 mM stock concentration) was used as the analyte, which flowed over the ligand-immobilized surface. FC2 and FC4 was used as the experimental flow cell, while FC1 and FC3 served as the reference. An anti-His antibody (1 mg/ml stock concentration) was immobilized on all flow cells using standard amine coupling chemistry. […] Human Nectin-4 was captured onto FC2 at a level of ~600 RU, with a 1:20 dilution and 10 μg/ml diluted concentration in PBS-P. Mouse Nectin-4 was captured onto FC4 at a level of 600 RU, with a 1:20 dilution and 10 μg/ml diluted concentration in PBS-P. The theoretical maximum response (Rmax ) values were calculated on the basis of the captured response values (table S1), assuming a 1:1 interaction mechanism. […] All association and dissociation kinetics were evaluated by 1:1 kinetics model fitting.

A further test has as its system HT1376 tumor xenograft. The experiment in a line: TE and EV therapy response study, HT1376 xenograft. It is filed as in vivo, NSG mice. The note with it: for mice showing a drop in [^68Ga]AJ647 uptake: day 6. Here is the method: Mice with tumor volumes of ~100 to 150 mm^3 were injected with ~200 μCi [7.4 megabecquerels (MBq)] of [^68Ga]AJ647 in […] of 5% ethanol in saline intravenously and anesthetized under 2.5% isoflurane. PET-computed tomography (CT) images were acquired at 60 min after radiotracer injection at 5 min per bed in an ARGUS small-animal PET/CT scanner (Sedecal, Madrid, Spain) as described previously (n = 3, unless otherwise noted). PET-MR images were acquired on a simultaneous 7T Bruker PET-MR scanner. Dynamic imaging was conducted to evaluate the PK of [^68Ga]AJ647. [^68Ga]AJ647 was injected (with the help of a catheter) after mice were anesthetized under 2.5% isoflurane on the equipment bed. All PET data were reconstructed using the two-dimensional (2D) ordered subset expectation maximization algorithm and corrected for radioactive decay and dead times. The SUV values were calculated by finding %IA on the basis of a calibration factor obtained from a known radioactive quantity and then normalizing by mice weight. Amide software was used to derive SUV values by drawing the region of interest to closely fit tumors. In particular, MR images were used to identify tumor boundaries manually; these boundaries were transferred to co-registered PET images to derive SUVs. This process was repeated for each mouse individually in a blinded fashion. For the change in accessible Nectin-4 following EV treatment, ΔSUV was calculated by subtracting baseline (pre-treatment) uptake from posttherapy uptake of [^68Ga]AJ647. TE was quantified by normalizing this change by initial SUV in the same subject controls. Image fusion, visualization, and 3D rendering were accomplished using Amira 2020.3.1 (FEI, Hillsboro, OR).
Male NSG (n = 35) mice were inoculated with 4 million HT1376 cells at day 0. On day 23 (average tumor volume, 170 ± 22 mm^3), mice were randomized to receive either saline or a single dose of EV (6 or 15 mg/kg) intravenously (n = 10 for each group). Mice (n = 10) from each dose group were imaged on days 22 (pre-EV) and 29 (6 days post-EV). Saline mice (n = 5) were imaged on day 25 to serve as temporal and treatment control. Mouse body weight and tumor measurements were recorded until saline group tumors reached 1500 mm^3 in average size. Responders and nonresponders were identified using mRECIST for mice published elsewhere ([34]). Briefly, the percentage change in volume relative to the baseline: % tumor volume change (ΔVolt) = 100% × [(Vt − Vinitial)/Vinitial]. BestResponse was the lowest ΔVolt for t ≥ 10 days. For each time t, the average ΔVolt from t = 0 to t was calculated, with the BestAvgResponse defined as the lowest average ΔVolt for t ≥ 10 days. mRECIST, adapted from RECIST21, assigned response labels when both the BestResponse and BestAvgResponse conditions are met at the same time. A modified complete response is defined when BestResponse is less than −95% and BestAvgResponse is less than −40%. A modified partial response is assigned when BestResponse is less than −50% and BestAvgResponse is less than −20%. Modified stable disease is defined when BestResponse is less than 35% and BestAvgResponse is less than 30%. Modified progressive disease is assigned when none of these criteria are satisfied.
We defined modified progressive disease as nonresponders (0 response) and stable disease or better as responders (1 response). […]

In general, koff refers to the rate constant with which the complex falls apart. With `CSCC[C@@H]1NC(=O)[C@@H]2CSCCC(=O)N3CN(CN(C3)C(=O)CCSC[C@H](NC(=O)CCOCCOCCOCCOCCOCCOCCOCCOCCOCCOCCOCCOCCNC(=O)CN3CCN(CC(=O)O)CCN(CC(=O)O)CC3)C(=O)N3CCC[C@H]3C(=O)N[C@@H](Cc3cccc4ccccc34)C(=O)N[C@@H](CC(=O)O)C(=O)N2)C(=O)CCSC[C@@H](C(N)=O)NC(=O)[C@H](Cc2c[nH]c3ccccc23)NC(=O)[C@@H]2C[C@@H](O)CN2C(=O)[C@@H]2CCCN2C(=O)[C@H]([C@@H](C)O)NC(=O)[C@H](CO)NC(=O)[C@H](Cc2c[nH]c3ccccc23)NC(=O)[C@@H](CC(=O)O)NC(=O)[C@H](CCCCNC(=N)N)NC1=O` [[^68Ga]AJ647, metal not drawn], the koff on mouse Nectin-4 came to 0.0101 ± 0.00295 s⁻¹.

Take enfortumab vedotin [EV]: the “mice showing a drop in [^68Ga]AJ647 uptake” value was 5 of 10 in the test with HT1376 tumor xenograft (EV 6 mg/kg) and 9 of 10 with HT1376 tumor xenograft (EV 15 mg/kg). The final tumor volume with HT1376 tumor xenograft (EV-treated mice with higher TE, in mm³ (unit assumed)) was 324.9 ± 194.6; in the test on HT1376 tumor xenograft (EV-treated mice with less than 30% TE) it was 759.4 ± 455. In the test with HT1376 tumor xenograft (single dose EV 6 or 15 mg/kg, n = 10 per group, more pronounced at 15 mg/kg), the tumor growth result is recorded as “Tumor growth inhibition was observed in both groups”.
